# In EP0550016A1, “Novel quinolone carboxylic acid derivatives and processes for preparing same” (KOREA RESEARCH INSTITUTE OF CHEMICAL TECHNOLOGY, priority 1991, dated 1993):
# Legend:
# Assay type in all cases: cell-based
# [1] = system: Staphylococcus aureus 703 E; experiment: In vitro anti-bacterial activity test (MIC, two-fold dilution method), Table 2 strains; conditions: Table 2 strain 12: Staphylococcus aureus 703 E; read-out: MIC
# [2] = system: Salmonella typhimurium; experiment: In vitro anti-bacterial activity test (MIC, two-fold dilution method) against the standard strains; conditions: Salmonella enterica; Table 1 strain 16: Salmonella typhimurium
# [3] = system: Staphylococcus aureus 692 E; experiment: In vitro anti-bacterial activity test (MIC, two-fold dilution method), Table 2 strains; conditions: Table 2 strain 6: Staphylococcus aureus 692 E
# [4] = system: Staphylococcus aureus 88 E; experiment: as above; conditions: Table 2 strain 1: Staphylococcus aureus 88 E
# [5] = system: Staphylococcus aureus 695 E; experiment: as above; conditions: Table 2 strain 9: Staphylococcus aureus 695 E; read-out: MIC
# [6] = system: Klebsiella aerogenes 1522 E; experiment: In vitro anti-bacterial activity test (MIC, two-fold dilution method) against the standard strains; conditions: Table 1 strain 18: Klebsiella aerogenes 1522 E
# [7] = system: Streptococcus faecium MD 8b; experiment: as above; conditions: Enterococcus faecium, MD8B; Table 1 strain 3: Streptococcus faecium MD 8b; read-out: MIC
# [8] = system: Escherichia coli DC 0; experiment: as above; conditions: DC0; Table 1 strain 8: Escherichia coli DC 0
# [9] = system: Staphylococcus aureus SG 511; experiment: as above; conditions: SG511; Table 1 strain 4: Staphylococcus aureus SG 511
# [10] = system: Staphylococcus aureus 208 E; experiment: In vitro anti-bacterial activity test (MIC, two-fold dilution method), Table 2 strains; conditions: Table 2 strain 3: Staphylococcus aureus 208 E; read-out: MIC
# [11] = system: Pseudomonas aeruginosa 1771 M; experiment: In vitro anti-bacterial activity test (MIC, two-fold dilution method) against the standard strains; conditions: Table 1 strain 15: Pseudomonas aeruginosa 1771 M
# [12] = system: Pseudomonas aeruginosa 1771; experiment: as above; conditions: Table 1 strain 14: Pseudomonas aeruginosa 1771
# [13] = system: Enterobacter cloacae 1321 E; experiment: as above; conditions: Table 1 strain 20: Enterobacter cloacae 1321 E
# [14] = system: Escherichia coli DC 0; experiment: as above; conditions: DC0; Table 1 strain 7: Escherichia coli DC 0
# [15] = system: Staphylococcus aureus 503; experiment: as above; conditions: Table 1 strain 6: Staphylococcus aureus 503; read-out: MIC
# [16] = system: Pseudomonas aeruginosa 9027; experiment: as above; conditions: Table 1 strain 12: Pseudomonas aeruginosa 9027
# [17] = system: Pseudomonas aeruginosa 1592 E; experiment: as above; conditions: Table 1 strain 13: Pseudomonas aeruginosa 1592 E
# [18] = system: Staphylococcus aureus 707 E; experiment: In vitro anti-bacterial activity test (MIC, two-fold dilution method), Table 2 strains; conditions: Table 2 strain 15: Staphylococcus aureus 707 E; read-out: MIC
# [19] = system: Staphylococcus aureus 693 E; experiment: as above; conditions: Table 2 strain 7: Staphylococcus aureus 693 E; read-out: MIC
# [20] = system: Staphylococcus aureus 711 E; experiment: as above; conditions: Table 2 strain 17: Staphylococcus aureus 711 E; read-out: MIC
# [21] = system: Staphylococcus aureus 708 E; experiment: as above; conditions: Table 2 strain 16: Staphylococcus aureus 708 E
# [22] = system: Staphylococcus aureus 121 E; experiment: as above; conditions: Table 2 strain 2: Staphylococcus aureus 121 E; read-out: MIC
# [23] = system: Staphylococcus aureus 694 E; experiment: as above; conditions: Table 2 strain 8: Staphylococcus aureus 694 E; read-out: MIC
# [24] = system: Streptococcus pyogenes 77 A; experiment: In vitro anti-bacterial activity test (MIC, two-fold dilution method) against the standard strains; conditions: Table 1 strain 2: Streptococcus pyogenes 77 A; read-out: MIC
# [25] = system: Staphylococcus aureus 714 E; experiment: In vitro anti-bacterial activity test (MIC, two-fold dilution method), Table 2 strains; conditions: Table 2 strain 18: Staphylococcus aureus 714 E; read-out: MIC
# [26] = system: Staphylococcus aureus 705 E; experiment: as above; conditions: Table 2 strain 13: Staphylococcus aureus 705 E; read-out: MIC
# [27] = system: Staphylococcus aureus 701 E; experiment: as above; conditions: Table 2 strain 11: Staphylococcus aureus 701 E; read-out: MIC
# [28] = system: Enterobacter cloacae P 99; experiment: In vitro anti-bacterial activity test (MIC, two-fold dilution method) against the standard strains; conditions: P99; Table 1 strain 19: Enterobacter cloacae P 99
# [29] = system: Staphylococcus aureus 256 E; experiment: In vitro anti-bacterial activity test (MIC, two-fold dilution method), Table 2 strains; conditions: Table 2 strain 4: Staphylococcus aureus 256 E
# [30] = system: Escherichia coli 1507 E; experiment: In vitro anti-bacterial activity test (MIC, two-fold dilution method) against the standard strains; conditions: Table 1 strain 11: Escherichia coli 1507 E
# [31] = system: Staphylococcus aureus 697 E; experiment: In vitro anti-bacterial activity test (MIC, two-fold dilution method), Table 2 strains; conditions: Table 2 strain 10: Staphylococcus aureus 697 E
# [32] = system: Klebsiella aerogenes 1082 E; experiment: In vitro anti-bacterial activity test (MIC, two-fold dilution method) against the standard strains; conditions: Table 1 strain 17: Klebsiella aerogenes 1082 E
# [33] = system: Staphylococcus aureus 706 E; experiment: In vitro anti-bacterial activity test (MIC, two-fold dilution method), Table 2 strains; conditions: Table 2 strain 14: Staphylococcus aureus 706 E; read-out: MIC
# [34] = system: Staphylococcus aureus 285; experiment: In vitro anti-bacterial activity test (MIC, two-fold dilution method) against the standard strains; conditions: Table 1 strain 5: Staphylococcus aureus 285; read-out: MIC
# [35] = system: Staphylococcus aureus 690 E; experiment: In vitro anti-bacterial activity test (MIC, two-fold dilution method), Table 2 strains; conditions: Table 2 strain 5: Staphylococcus aureus 690 E; read-out: MIC
# [36] = system: Staphylococcus aureus 725 E; experiment: as above; conditions: Table 2 strain 19: Staphylococcus aureus 725 E; read-out: MIC
# [37] = system: Streptococcus pyogenes 308 A; experiment: In vitro anti-bacterial activity test (MIC, two-fold dilution method) against the standard strains; conditions: Table 1 strain 1: Streptococcus pyogenes 308 A
# [38] = system: Escherichia coli OTEM; experiment: as above; conditions: Table 1 strain 10: Escherichia coli OTEM
# [39] = system: Escherichia coli DC 2; experiment: as above; conditions: DC2; Table 1 strain 9: Escherichia coli DC 2; read-out: MIC
smiles,measurement,setting,value
"Nc1c(F)c(N2CCC3(CC3N)C2)c(F)c2c1c(=O)c(C(=O)O)cn2C1CC1 (stereo not drawn) [Example 7, 7-(1-amino-5-azaspiro[2,4]heptane-5-yl)-1-cyclopropyl-5-amino-6,8-difluoro-1,4-dihydro-4-oxo-quinoline-3-carboxylic acid]",MIC,[1],0.025 µg/mL
same,MIC,[2],0.025 µg/mL
same,MIC,[3],0.013 µg/mL
same,MIC,[4],0.098 µg/mL
same,MIC,[5],0.013 µg/mL
same,MIC,[6],0.098 µg/mL
same,MIC,[7],0.391 µg/mL
same,MIC,[8],0.391 µg/mL
same,MIC,[9],0.025 µg/mL
same,MIC,[10],0.025 µg/mL
same,MIC,[11],0.391 µg/mL
same,MIC,[12],0.781 µg/mL
same,MIC,[13],0.013 µg/mL
same,MIC,[14],0.007 µg/mL
same,MIC,[15],0.025 µg/mL
same,MIC,[16],1.56 µg/mL
same,MIC,[17],1.56 µg/mL
same,MIC,[18],0.025 µg/mL
same,MIC,[19],0.013 µg/mL
same,MIC,[20],0.007 µg/mL
same,MIC,[21],0.007 µg/mL
same,MIC,[22],0.025 µg/mL
same,MIC,[23],0.025 µg/mL
same,MIC,[24],0.195 µg/mL
same,MIC,[25],0.013 µg/mL
same,MIC,[26],0.025 µg/mL
same,MIC,[27],0.025 µg/mL
same,MIC,[28],0.025 µg/mL
same,MIC,[29],0.025 µg/mL
same,MIC,[30],0.098 µg/mL
same,MIC,[31],0.013 µg/mL
same,MIC,[32],0.007 µg/mL
same,MIC,[33],0.025 µg/mL
same,MIC,[34],0.025 µg/mL
same,MIC,[35],0.013 µg/mL
same,MIC,[36],0.025 µg/mL
same,MIC,[37],0.391 µg/mL
same,MIC,[38],0.025 µg/mL
same,MIC,[39],0.098 µg/mL
"CNC1CC12CCN(c1c(F)cc3c(=O)c(C(=O)O)cn(C4CC4)c3c1F)C2 (stereo not drawn) [Example 8, 7-(1-methylamino-5-azaspiro[2,4]heptane-5-yl)-1-cyclopropyl-6,8-difluoro-1,4-dihydro-4-oxo-quinoline-3-carboxylic acid]",MIC,[1],0.195 µg/mL
same,MIC,[2],0.049 µg/mL
same,MIC,[3],0.049 µg/mL
same,MIC,[4],0.098 µg/mL
same,MIC,[5],0.049 µg/mL
same,MIC,[6],0.098 µg/mL
same,MIC,[7],0.195 µg/mL
same,MIC,[8],0.391 µg/mL
same,MIC,[9],0.049 µg/mL
same,MIC,[10],0.098 µg/mL
same,MIC,[11],0.391 µg/mL
same,MIC,[12],1.56 µg/mL
same,MIC,[13],0.025 µg/mL
same,MIC,[14],0.013 µg/mL
same,MIC,[15],0.049 µg/mL
same,MIC,[16],1.56 µg/mL
same,MIC,[17],1.56 µg/mL
same,MIC,[18],0.195 µg/mL
same,MIC,[19],0.049 µg/mL
same,MIC,[20],0.049 µg/mL
same,MIC,[21],0.049 µg/mL
same,MIC,[22],0.098 µg/mL
same,MIC,[23],0.391 µg/mL
same,MIC,[24],0.195 µg/mL
same,MIC,[25],0.049 µg/mL
same,MIC,[26],0.195 µg/mL
same,MIC,[27],0.195 µg/mL
same,MIC,[28],0.049 µg/mL
same,MIC,[29],0.195 µg/mL
same,MIC,[30],0.049 µg/mL
same,MIC,[31],0.049 µg/mL
same,MIC,[32],0.004 µg/mL
same,MIC,[33],0.098 µg/mL
same,MIC,[34],0.049 µg/mL
same,MIC,[35],0.049 µg/mL
same,MIC,[36],0.098 µg/mL
same,MIC,[37],0.391 µg/mL
same,MIC,[38],0.049 µg/mL
same,MIC,[39],0.098 µg/mL
"CNC1CC12CCN(c1c(F)cc3c(=O)c(C(=O)O)cn(C4CC4)c3c1Cl)C2 (stereo not drawn) [Example 9, 7-(1-methylamino-5-azaspiro[2,4]heptane-5-yl)-8-chloro-1-cyclopropyl-6-fluoro-1,4-dihydro-4-oxo-quinoline-3-carboxylic acid]",MIC,[1],0.098 µg/mL
same,MIC,[2],0.049 µg/mL
same,MIC,[3],0.049 µg/mL
same,MIC,[4],0.195 µg/mL
same,MIC,[5],0.049 µg/mL
same,MIC,[6],0.195 µg/mL
same,MIC,[7],0.195 µg/mL
same,MIC,[8],0.391 µg/mL
same,MIC,[9],0.049 µg/mL
same,MIC,[10],0.098 µg/mL
same,MIC,[11],0.781 µg/mL
same,MIC,[12],1.56 µg/mL
same,MIC,[13],0.025 µg/mL
same,MIC,[14],0.025 µg/mL
same,MIC,[15],0.049 µg/mL
same,MIC,[16],3.12 µg/mL
same,MIC,[17],1.56 µg/mL
same,MIC,[18],0.098 µg/mL
same,MIC,[19],0.049 µg/mL
same,MIC,[20],0.025 µg/mL
same,MIC,[21],0.025 µg/mL
same,MIC,[22],0.098 µg/mL
same,MIC,[23],0.098 µg/mL
same,MIC,[24],0.195 µg/mL
same,MIC,[25],0.098 µg/mL
same,MIC,[26],0.098 µg/mL
same,MIC,[27],0.098 µg/mL
same,MIC,[28],0.098 µg/mL
same,MIC,[29],0.098 µg/mL
same,MIC,[30],0.098 µg/mL
same,MIC,[31],0.049 µg/mL
same,MIC,[32],0.025 µg/mL
same,MIC,[33],0.098 µg/mL
same,MIC,[34],0.049 µg/mL
same,MIC,[35],0.049 µg/mL
same,MIC,[36],0.098 µg/mL
same,MIC,[37],0.391 µg/mL
same,MIC,[38],0.049 µg/mL
same,MIC,[39],0.098 µg/mL
